Laboratory results from PubChem BioAssay AID1745844 (Carcinogenic Potency Database (CPDB), 2022).
Active and inactive are the calls of the source. How the calls were made is not given here.

System: rodent lifetime carcinogenesis bioassay, tumor incidence TD50
Assay: chronic cancer bioassays in animals – CPDB, compiled studies (AID 1745844)

## Cc1cccn2c1nc1ccc(N)nc12
mouse, strain CDF1, females, in feed, site: blood vessels, lesion: hemangioendothelial sarcoma, dosed 67 weeks, study length 67 weeks
  TD50: 13.8 mg/kg/day
mouse, strain CDF1, females, in feed, site: blood vessels, lesion: several types, types named in the paper, dosed 67 weeks, study length 67 weeks
  TD50: 10.9 mg/kg/day
mouse, strain CDF1, females, in feed, site: liver, lesion: hepatocellular adenoma, dosed 67 weeks, study length 67 weeks
  TD50: 44.1 mg/kg/day
mouse, strain CDF1, females, in feed, site: liver, lesion: hepatocellular carcinoma, dosed 67 weeks, study length 67 weeks
  TD50: 18.5 mg/kg/day
mouse, strain CDF1, females, in feed, site: liver, lesion: several types, types named in the paper, dosed 67 weeks, study length 67 weeks
  TD50: 5.08 mg/kg/day
mouse, strain CDF1, females, in feed, site: lung, lesion: adenoma, dosed 67 weeks, study length 67 weeks
  TD50: 166 mg/kg/day
mouse, strain CDF1, females, in feed, site: lung, lesion: several types, types named in the paper, dosed 67 weeks, study length 67 weeks
  TD50: 308 mg/kg/day
mouse, strain CDF1, males, in feed, site: blood vessels, lesion: hemangioendothelial sarcoma, dosed 57 weeks, study length 57 weeks
  TD50: 7.81 mg/kg/day
mouse, strain CDF1, males, in feed, site: blood vessels, lesion: hemangioendothelioma, dosed 57 weeks, study length 57 weeks
  TD50: 98.7 mg/kg/day
mouse, strain CDF1, males, in feed, site: blood vessels, lesion: several types, types named in the paper, dosed 57 weeks, study length 57 weeks
  TD50: 5.77 mg/kg/day
mouse, strain CDF1, males, in feed, site: liver, lesion: hepatocellular adenoma, dosed 57 weeks, study length 57 weeks
  TD50: 98.7 mg/kg/day
mouse, strain CDF1, males, in feed, site: lung, lesion: adenoma, dosed 57 weeks, study length 57 weeks
  TD50: 1000 mg/kg/day
rat, strain F344/DuCrj, females, in feed, site: Zymbal's gland, lesion: squamous-cell carcinoma, dosed 67 weeks, study length 67 weeks
  TD50: 12.7 mg/kg/day
rat, strain F344/DuCrj, females, in feed, site: brain, lesion: astrocytoma, dosed 67 weeks, study length 67 weeks
  TD50: 95.9 mg/kg/day
rat, strain F344/DuCrj, females, in feed, site: clitoral gland, lesion: one or several types, types not named, dosed 67 weeks, study length 67 weeks
  TD50: 56.1 mg/kg/day
rat, strain F344/DuCrj, females, in feed, site: colon, lesion: adenocarcinoma, dosed 67 weeks, study length 67 weeks
  TD50: 95.9 mg/kg/day
rat, strain F344/DuCrj, females, in feed, site: colon, lesion: adenoma, dosed 67 weeks, study length 67 weeks
  TD50: 71 mg/kg/day
rat, strain F344/DuCrj, females, in feed, site: colon, lesion: several types, types named in the paper, dosed 67 weeks, study length 67 weeks
  TD50: 39 mg/kg/day
rat, strain F344/DuCrj, females, in feed, site: liver, lesion: several types, types named in the paper, dosed 67 weeks, study length 67 weeks
  TD50: 8.39 mg/kg/day
rat, strain F344/DuCrj, females, in feed, site: small intestine, lesion: adenocarcinoma, dosed 67 weeks, study length 67 weeks
  TD50: 56.1 mg/kg/day
rat, strain F344/DuCrj, females, in feed, site: small intestine, lesion: adenoma, dosed 67 weeks, study length 67 weeks
  TD50: 146 mg/kg/day
rat, strain F344/DuCrj, females, in feed, site: small intestine, lesion: mucinous carcinoma, dosed 67 weeks, study length 67 weeks
  TD50: 71 mg/kg/day
rat, strain F344/DuCrj, females, in feed, site: small intestine, lesion: several types, types named in the paper, dosed 67 weeks, study length 67 weeks
  TD50: 26.1 mg/kg/day
rat, strain F344/DuCrj, males, in feed, site: Zymbal's gland, lesion: squamous-cell carcinoma, dosed 67 weeks, study length 67 weeks
  TD50: 10.2 mg/kg/day
rat, strain F344/DuCrj, males, in feed, site: colon, lesion: adenocarcinoma, dosed 67 weeks, study length 67 weeks
  TD50: 16.9 mg/kg/day
rat, strain F344/DuCrj, males, in feed, site: colon, lesion: adenoma, dosed 67 weeks, study length 67 weeks
  TD50: 15.4 mg/kg/day
rat, strain F344/DuCrj, males, in feed, site: colon, lesion: several types, types named in the paper, dosed 67 weeks, study length 67 weeks
  TD50: 9.45 mg/kg/day
rat, strain F344/DuCrj, males, in feed, site: liver, lesion: several types, types named in the paper, dosed 67 weeks, study length 67 weeks
  TD50: 3.25 mg/kg/day
rat, strain F344/DuCrj, males, in feed, site: small intestine, lesion: adenocarcinoma, dosed 67 weeks, study length 67 weeks
  TD50: 6.71 mg/kg/day
rat, strain F344/DuCrj, males, in feed, site: small intestine, lesion: adenoma, dosed 67 weeks, study length 67 weeks
  TD50: 8.21 mg/kg/day
rat, strain F344/DuCrj, males, in feed, site: small intestine, lesion: mucinous carcinoma, dosed 67 weeks, study length 67 weeks
  TD50: 236 mg/kg/day
rat, strain F344/DuCrj, males, in feed, site: small intestine, lesion: several types, types named in the paper, dosed 67 weeks, study length 67 weeks
  TD50: 5.89 mg/kg/day

## ClCOCCl
mouse, strain Ha/ICR, females, i.p., site: abdomen, lesion: sarcoma, dosed 60 weeks, study length 60 weeks
  TD50: 0.182 mg/kg/day
mouse, strain Ha/ICR, males, inhaled, site: liver, lesion: hepatocellular carcinoma, dosed 26 weeks, study length 108 weeks
  carcinogen call: negative (inactive)
mouse, strain Ha/ICR, males, inhaled, site: liver, lesion: several types, types named in the paper, dosed 26 weeks, study length 108 weeks
  carcinogen call: negative (inactive)
mouse, strain Ha/ICR, males, inhaled, site: lung, lesion: adenoma, dosed 26 weeks, study length 108 weeks
  TD50: 1.26 mg/kg/day
mouse, strain Ha/ICR, males, inhaled, site: lung, lesion: several types, types named in the paper, dosed 26 weeks, study length 108 weeks
  TD50: 1.16 mg/kg/day
rat, strain Sprague-Dawley Spartan, males, inhaled, site: any site (literature study), lesion: several types, types named in the paper, dosed 26 weeks, study length 121 weeks
  TD50: 0.00234 mg/kg/day
rat, strain Sprague-Dawley Spartan, males, inhaled, site: liver, lesion: hepatocellular tumor, benign, dosed 26 weeks, study length 121 weeks
  carcinogen call: negative (inactive)
rat, strain Sprague-Dawley Spartan, males, inhaled, site: lung, lesion: adenoma, dosed 26 weeks, study length 121 weeks
  TD50: 0.196 mg/kg/day
rat, strain Sprague-Dawley Spartan, males, inhaled, site: nasal passageway, lesion: carcinoma, dosed 26 weeks, study length 121 weeks
  TD50: 0.795 mg/kg/day
rat, strain Sprague-Dawley Spartan, males, inhaled, site: nasal passageway, lesion: esthesioneuroepithelioma, dosed 26 weeks, study length 121 weeks
  TD50: 0.00357 mg/kg/day

## CC(O)CN(CCO)N=O (configuration not stated)
rat, strain Fischer 344, females, in drinking water, site: esophagus, lesion: several types, types named in the paper, dosed 50 weeks, study length 75 weeks
  TD50: 6.74 mg/kg/day
rat, strain Fischer 344, females, in drinking water, site: liver, lesion: angiosarcoma, dosed 50 weeks, study length 75 weeks
  TD50: 4.5 mg/kg/day
rat, strain Fischer 344, females, in drinking water, site: liver, lesion: hepatocellular carcinoma, dosed 50 weeks, study length 75 weeks
  TD50: 1.02 mg/kg/day
rat, strain Fischer 344, females, in drinking water, site: liver, lesion: several types, types named in the paper, dosed 50 weeks, study length 75 weeks
  TD50: 1.12 mg/kg/day
rat, strain Fischer 344, females, in drinking water, site: nasal cavity, lesion: olfactory carcinoma, dosed 50 weeks, study length 75 weeks
  TD50: 5.44 mg/kg/day

## CN(C)P(=O)(N(C)C)N(C)C
rat, strain Charles River CD (Sprague-Dawley), both sexes, inhaled, site: nasal cavity, adenoid, lesion: squamous-cell carcinoma, dosed 53 weeks, study length 104 weeks
  TD50: 0.519 mg/kg/day
rat, strain Charles River CD (Sprague-Dawley), both sexes, inhaled, site: nasal cavity, adenoid, lesion: squamous-cell carcinoma, dosed 72 weeks, study length 104 weeks
  TD50: 0.608 mg/kg/day
rat, strain Charles River CD (Sprague-Dawley), both sexes, inhaled, site: nasal cavity, lesion: epidermoid carcinoma, dosed 53 weeks, study length 104 weeks
  TD50: 0.0581 mg/kg/day
rat, strain Charles River CD (Sprague-Dawley), both sexes, inhaled, site: nasal cavity, lesion: epidermoid carcinoma, dosed 72 weeks, study length 104 weeks
  TD50: 0.0456 mg/kg/day
rat, strain Charles River CD (Sprague-Dawley), both sexes, inhaled, site: nasal cavity, lesion: malignant tumor, dosed 53 weeks, study length 104 weeks
  TD50: 0.0416 mg/kg/day
rat, strain Charles River CD (Sprague-Dawley), both sexes, inhaled, site: nasal cavity, lesion: malignant tumor, dosed 72 weeks, study length 104 weeks
  TD50: 0.0387 mg/kg/day
rat, strain Charles River CD (Sprague-Dawley), both sexes, inhaled, site: nasal cavity, lesion: several types, types named in the paper, dosed 53 weeks, study length 104 weeks
  TD50: 0.0345 mg/kg/day
rat, strain Charles River CD (Sprague-Dawley), both sexes, inhaled, site: nasal cavity, lesion: several types, types named in the paper, dosed 72 weeks, study length 104 weeks
  TD50: 0.0344 mg/kg/day

## O=c1c(O)c(-c2ccc(O)cc2)oc2cc(O)cc(O)c12
rat, strain ACI, females, in feed, site: any site (literature study), lesion: several types, types named in the paper, dosed 77 weeks, study length 77 weeks
  TD50: 55.3 mg/kg/day (inactive)
rat, strain ACI, males, in feed, site: adrenal gland, lesion: cortical adenoma, dosed 77 weeks, study length 77 weeks
  TD50: 17.9 mg/kg/day (inactive)

## Nc1cc(S(=O)(=O)O)cc2cc(S(=O)(=O)O)c(N=Nc3ccc(-c4ccc(N=Nc5c(S(=O)(=O)O)cc6cc(S(=O)(=O)O)cc(N)c6c5O)cc4)cc3)c(O)c12
rat, strain Fischer 344, females, in feed, site: any site (literature study), lesion: several types, types named in the paper, dosed 13 weeks, study length 13 weeks
  TD50: 3.21 mg/kg/day
rat, strain Fischer 344, females, in feed, site: liver, lesion: hepatocellular adenoma + hepatocellular carcinoma + neoplastic nodule, dosed 13 weeks, study length 13 weeks
  TD50: 3.21 mg/kg/day
rat, strain Fischer 344, females, in feed, site: liver, lesion: hepatocellular carcinoma + neoplastic nodule, dosed 13 weeks, study length 13 weeks
  TD50: 3.21 mg/kg/day
rat, strain Fischer 344, females, in feed, site: liver, lesion: hepatocellular carcinoma, dosed 13 weeks, study length 13 weeks
  TD50: 5.97 mg/kg/day
rat, strain Fischer 344, males, in feed, site: any site (literature study), lesion: several types, types named in the paper, dosed 13 weeks, study length 13 weeks
  TD50: 1.18 mg/kg/day
rat, strain Fischer 344, males, in feed, site: liver, lesion: hepatocellular adenoma + hepatocellular carcinoma + neoplastic nodule, dosed 13 weeks, study length 13 weeks
  TD50: 1.18 mg/kg/day
rat, strain Fischer 344, males, in feed, site: liver, lesion: hepatocellular carcinoma + neoplastic nodule, dosed 13 weeks, study length 13 weeks
  TD50: 1.18 mg/kg/day

## CC(C)(C)c1cc(CO)cc(C(C)(C)C)c1O
rat, strain NZBW (hooded black and white strain), females, in feed, site: any site (literature study), lesion: several types, types named in the paper, dosed 104 weeks, study length 104 weeks
  TD50: 3710 mg/kg/day (inactive)
rat, strain NZBW (hooded black and white strain), females, in feed, site: mammary gland, lesion: fibroadenoma, dosed 104 weeks, study length 104 weeks
  TD50: 3710 mg/kg/day (inactive)
rat, strain NZBW (hooded black and white strain), males, in feed, site: any site (literature study), lesion: one or several types, types not named, dosed 104 weeks, study length 104 weeks
  carcinogen call: negative (inactive)
